Experimental data reported in publication PMC6943918 (The Biochemical journal, 2014).

Biological target: T1, ZmTenA_E (maize TenA_E, GRMZM2G080501) (Zea mays, UniProt B6TPF2)
T1 sequence (B6TPF2 1-224): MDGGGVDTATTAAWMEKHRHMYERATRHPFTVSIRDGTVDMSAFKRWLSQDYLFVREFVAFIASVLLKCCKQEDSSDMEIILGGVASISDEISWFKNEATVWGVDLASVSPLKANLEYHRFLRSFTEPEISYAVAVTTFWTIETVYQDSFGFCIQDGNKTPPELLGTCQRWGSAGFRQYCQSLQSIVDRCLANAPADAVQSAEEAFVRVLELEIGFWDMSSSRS
Assay: HPLC-UV
Assay type: biochemical
Conditions: amino-HMP aminohydrolase; 100 nmol substrate, 50 μg enzyme, 4 h, 30°C

Cc1ncc(CN)c(N)n1 [Amino-HMP, 4-amino-5-aminomethyl-2-methylpyrimidine]
HPLC-UV (235 nm) hydrolysis assay: both plant TenA_E proteins had some activity against amino-HMP
